Like-named read-outs stand apart in the source and are kept apart here.
Key:
melanoma = melanoma chemotherapy; cited from earlier work
UACC-62 cells = experiment: Cell cycle distribution by flow cytometry; assay type: cell-based, human; conditions: UACC-62, 6 days, 0.01 µM to 1 µM, PI staining
[1] = system: PC-3 (human prostate cancer); experiment: Screening against PC-3; assay type: cell-based; conditions: unpublished data from this laboratory
[2] = system: NCI-H226 (human lung cancer); experiment: Screening against NCI-H226; assay type: cell-based; conditions: unpublished data from this laboratory
[3] = system: UO-31 (human renal cancer); experiment: Screening against UO-31; assay type: cell-based; conditions: unpublished data from this laboratory
A431(human skin cancer) = experiment: Screening against A431; assay type: cell-based; conditions: unpublished data from this laboratory
[4] = cited from earlier work
[5] = high dosages; cited from earlier work

## CN(C)/N=N/c1[nH]cnc1C(N)=O [Dacarbazine, dacarbazine]
melanoma
  response rate: 10% to 20

## CC(=O)N[C@@H](CSC(=O)Nc1ccc(Cl)cc1)C(=O)O [NACC, N-Acetyl-S-(p-chlorophenylcarbamoyl)cysteine]
UACC-62 cells
  effect on cell cycle distribution: no change in cell cycle distribution was observed
[1]
  activity against PC-3: Poor activities
[2]
  activity against NCI-H226: Poor activities
[3]
  activity against UO-31: Poor activities
A431(human skin cancer)
  activity against A431: Poor activities
[4]; reported earlier
  protein binding: 84%

## O=C(Nc1ccc(Cl)cc1)NS(=O)(=O)c1ccc2c(c1)CCC2 [Sulofenur, reference compound]
[4]
  protein binding: greater than 99%
[5]
  adverse effects in clinical trials: hemolytic anemia and methemoglobinemia were observed

— publication PMC3026848 (Bioorganic & medicinal chemistry, 2010)
